The text below walks through data of PubChem BioAssay AID2060616 (Molecular Pharmacology Branch, DTP, NCI, 2025).

The test system of this experiment is 377384-186-R-J1-PDC complex spheroid viability. The experiment can be described thus: Anticancer human tumor 377384-186-R-J1-PDC patient-derived pancreatic carcinoma cell line growth inhibition [CLK]. As to conditions: for viability, T/C: stronger effect = lower value. From the text:
A high-throughput screen of multi-cell type tumor spheroids was designed to identify active combinations of […] and targeted small molecules. Complex spheroids include a stromal component modeled by human endothelial cells (HUVEC) and fibroblasts modeled by human mesenchymal stem cells (MSCs). The concentration ranges selected for each drug and investigational agent were based upon clinically achievable concentrations if the clinical Cmax of the agent was known.
Compounds. The drugs and investigational agents: cirtuvivint (SM08502; NSC835563), CC-671 (NSC850746), vemurafenib (NSC761431), tapotoclax (NSC804041), sotorasib (NSC818433), adagrasib (NSC831453), MRTX-1133 (NSC836407), BAY2416964 (NSC825713), copanlisib (NSC816437), inavolisib (NSC800729), abemaciclib (NSC768073), osimertinib (NSC779217), entinostat (NSC756642), eltanexor (KPT-8602, NSC794443), venetoclax (NSC766270), ceralasertib (NSC777638), bortezomib (NSC756655), olaparib (NSC753686), talazoparib (NSC767125), alisertib (NSC759677), peposertib (NSC802822), gemcitabine (NSC613327), 5-fluorouracil (NSC19893), SN-38 (NSC673596), oxaliplatin (NSC266046), paclitaxel (NSC125973), and doxorubicin (NSC123127), were obtained from the National Cancer Institute (NCI) Developmental Therapeutics Program Chemical Repository. The FDA-approved anticancer drug set is available from the Developmental Therapeutics Program at https://dtp.cancer.gov/organization/dscb/obtaining/available plates.htm. […] The stock solutions were prepared in dimethyl sulfoxide (DMSO, Sigma-Aldrich, St. Louis, MO, cat. D2650), except for the platinum complexes which were prepared in saline (Quality Biological, Gaithersburg, MD, cat. 114-055-101), at 800-fold the tested concentration and stored at -70 degrees C prior to their use. All drugs and investigational agents were tested over a range starting from a high concentration at or near the clinical Cmax and decreasing in half-log increments. If the clinical Cmax for an agent had not been determined, the highest concentration tested was 10 microM.
Cell Culture. All cells were maintained in an incubator at 37 degrees C and 5% CO2 with 95% humidity. The PDC lines were cultured according to standard operating procedures established by the NCI PDMR. Briefly, all PDCs were thawed and cultured in Matrigel-coated flasks prepared with a working solution of 1X Ham's F-12 nutrient mix, without supplementation (Invitrogen, Waltham, MA, cat. 11765054), 100 U/mL penicillin-streptomycin (Invitrogen, cat. 15140122), and 2.5% Matrigel (Corning Inc., Corning, NY, cat. 354248) for the first three passages. The 947758-054-R-J2-PDC line was cultured in 6B/Colon 1A media, which includes advanced DMEM/F-12 (Thermo Fisher Scientific, cat. 12634028), 10 mM HEPES (Thermo Fisher Scientific, cat. 15630080), 1X GlutaMAX supplement (Thermo Fisher Scientific, cat. 35050061), 0.1 mg/mL primocin (InvivoGen, cat. ant-pm-2), 10% defined fetal bovine serum, heat inactivated (HyClone Laboratories Inc., cat. SH30070.03HI), 1.25 mM N-Acetyl-L-cysteine (Sigma-Aldrich, cat. A9165), 10 mM nicotinamide (Sigma-Aldrich, cat. N0636), 1X B-27 supplement (Thermo Fisher Scientific, cat. 17504044), 1X N-2 supplement (Thermo Fisher Scientific, cat. 17502048), and 10 microM Y-27632 dihydrochloride (Tocris Bioscience, cat. 1254). The 876862-298-R-J1-PDC was cultured in 6E media, which includes all 6B/Colon 1A media components plus 50% L-WRN conditioned media (ATCC, cat. CRL-3276), 50 ng/mL recombinant human EGF recombinant protein (hEGF; Thermo Fisher Scientific, cat. PHG0311), 10 ng/mL recombinant human fibroblast growth factor 10 (hGFG-10; PeproTech, cat. 100-26), 1 ng/mL recombinant human fibroblast growth factor 2 (hFGF-2; PeproTech, cat. 100-18B), and 1 µM prostaglandin E2 (PGE2; Tocris, cat. 2296). The 227483-062-R1-J1-PDC line was cultured in Panc media, containing all 6E components except hFGF-2, with the addition of 500 nM SB-431542 (Selleckchem, cat. S1067) and 10 nM gastrin (Tocris, cat. 3006). […]

“And” between values parts separate entries of the source, which are not always exact repeats. Identical values can stand only once.
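Further: spheroids exposed to agents for 7 days before reading.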
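Wherever viability, T/C is given: luminescence signal used as a stand-in for viable cells.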

`C=CC(=O)Nc1cc(Nc2nccc(-c3cn(C)c4ccccc34)n2)c(OC)cc1N(C)CCN(C)C`: the viability, T/C reads like this: (compound 0.000949 µM) 104% and 105%; (compound 0.003 µM) 84.7% and 99.9%; (compound 0.00949 µM) 85.3% and 108%; (compound 0.03 µM) 85.4% and 97.6%; (compound 0.0949 µM) 78% and 77.1%; (compound 0.3 µM) 50% and 62%. The half-inhibitory concentration (IC50) (curve of compound) was greater than 300 nM.
For the compound `CC(C)CC(NC(=O)C(Cc1ccccc1)NC(=O)c1cnccn1)B(O)O` (stereo not given), the viability, T/C was 76.6% and 65.6% (compound 0.000949 µM); 1.85% and 2.08% (compound 0.003 µM); 0.32% and 0.23% (compound 0.00949 µM); 0.26% and 0.38% (compound 0.03 µM); 0.18% and 0.14% (compound 0.0949 µM); 0.78% and 0.14% (compound 0.3 µM). For the same compound, the IC50 (curve of compound) was 1.43 nM and 1.26 nM.
As to `CCCS(=O)(=O)Nc1ccc(F)c(C(=O)c2c[nH]c3ncc(-c4ccc(Cl)cc4)cc23)c1F`, the viability, T/C by setting is: (compound 0.0316 µM) 94.9% and 92.5%; (compound 0.1 µM) 86% and 102%; (compound 0.316 µM) 120% and 114%; (compound 1 µM) 126% and 124%; (compound 3.16 µM) 114% and 105%; (compound 10 µM) 59.8% and 57.9%. The IC50 (curve of compound) is greater than 10000 nM.
For `CCN1CCN(Cc2ccc(Nc3ncc(F)c(-c4cc(F)c5nc(C)n(C(C)C)c5c4)n3)nc2)CC1`, the viability, T/C was 84.8% and 87.7% (compound 0.00316 µM); 74.9% and 74.1% (compound 0.01 µM); 74% and 73.8% (compound 0.0316 µM); 61% and 58.6% (compound 0.1 µM); 45.6% and 50.9% (compound 0.316 µM); 39.5% and 40.4% (compound 1 µM). For the setting “curve of compound”, the IC50 is 245 nM and 335 nM.
Regarding `CCc1c2c(nc3ccc(O)cc13)-c1cc3c(c(=O)n1C2)COC(=O)[C@]3(O)CC`, the viability, T/C is 30% and 30.1% (compound 0.00316 µM); 17.2% and 14.6% (compound 0.01 µM); 6.41% and 5.33% (compound 0.0316 µM); 3.96% and 2.67% (compound 0.1 µM); 1.37% and 1.52% (compound 0.316 µM); 0.82% and 0.63% (compound 1 µM). Also, the IC50 (curve of compound) is less than 3.16 nM.
`CN1CCN(c2cc(C(=O)Nc3cc4cc(-c5cnn(C)c5)ccc4cn3)ccn2)CC1`: the viability, T/C is 102% [middle of 12 runs] (compound 0.0316 µM); 103% [middle of 12 runs] (compound 0.1 µM); 25.7% [middle of 12 runs] (compound 0.316 µM); 1.33% [middle of 12 runs] (compound 1 µM); 0.96% [middle of 11 runs] (compound 3.16 µM); 0.49% [middle of 11 runs] (compound 10 µM). Moreover, the IC50 (compound alone, run of 07/31/2023) was 220 nM [middle of 9 runs].
For `CNC(=O)c1ccc(Nc2nc(OC3CCCC3)c3c(-c4ccc5nc(C)oc5c4)c[nH]c3n2)c(OC)c1`, the viability, T/C was 102% [middle of 12 runs] (compound 0.0316 µM); 57.2% [middle of 12 runs] (compound 0.1 µM); 20.9% [middle of 12 runs] (compound 0.316 µM); 20.4% [middle of 12 runs] (compound 1 µM); 21% [middle of 12 runs] (compound 3.16 µM); 21.6% [middle of 12 runs] (compound 10 µM). Also, the half-inhibitory concentration (IC50) (compound alone, run of 08/01/2023) is 130 nM [middle of 11 runs].
In the case of `COc1c(OCCCN2CCOCC2)ccc2c3n(c(=NC(=O)c4cnc(N)nc4)nc12)CCN3`, the viability, T/C runs as follows: (compound 0.00316 µM) 89.6% and 77.6%; (compound 0.01 µM) 72.4% and 61.6%; (compound 0.0316 µM) 50% and 52.3%; (compound 0.1 µM) 34.4% and 30.3%; (compound 0.316 µM) 22.4% and 22.7%; (compound 1 µM) 14.3% and 13.8%. Under “curve of compound”, the IC50 is 34.4 nM and 28.3 nM.
Consider `Cn1ncnc1[C@H]1c2n[nH]c(=O)c3cc(F)cc(c23)N[C@@H]1c1ccc(F)cc1`, for which the viability, T/C is 86.8% and 87.2% (compound 0.000316 µM); 73.7% and 74.4% (compound 0.001 µM); 62.4% and 66.9% (compound 0.00316 µM); 57.6% and 62.5% (compound 0.01 µM); 53.4% and 47.6% (compound 0.0316 µM); 41.8% and 43.1% (compound 0.1 µM). For the same compound, for the setting “curve of compound”, the half-maximal inhibitory concentration (IC50) was 30.7 nM and 33.4 nM.
Regarding `NC(=O)C(=Cn1cnc(-c2cc(C(F)(F)F)cc(C(F)(F)F)c2)n1)c1cncnc1`, the viability, T/C is 78.2% and 92.5% (compound 0.00949 µM); 70.7% and 66.7% (compound 0.03 µM); 41.7% and 36.3% (compound 0.0949 µM); 27% and 18.9% (compound 0.3 µM); 7.58% and 5.02% (compound 0.949 µM); 3.05% and 2.18% (compound 3 µM). Further, the IC50 (curve of compound) was 76 nM and 57.4 nM.
